Laboratory results published in patent US12122761B2, “2-azaspiro[3.4]octane derivatives as M4 agonists” (NOVARTIS AG, priority 2019, dated 2024).

Assays:
[1] = biological target: T1, human cloned CHRM4 receptor (M4_CHO cells) (Homo sapiens, UniProt P08173); experiment: CHRM4 Ca++ Flux Assay (agonist mode, FDSS 7000EX); type: cell-based; conditions: for M4 FDSS PA: Percent Activity; for EC50: geometric mean if tested more than once, read-out: M4 FDSS EC50
T1 construct: expressed in transfected cells; host or cells: CHO-K1
T1 sequence (P08173 1-479): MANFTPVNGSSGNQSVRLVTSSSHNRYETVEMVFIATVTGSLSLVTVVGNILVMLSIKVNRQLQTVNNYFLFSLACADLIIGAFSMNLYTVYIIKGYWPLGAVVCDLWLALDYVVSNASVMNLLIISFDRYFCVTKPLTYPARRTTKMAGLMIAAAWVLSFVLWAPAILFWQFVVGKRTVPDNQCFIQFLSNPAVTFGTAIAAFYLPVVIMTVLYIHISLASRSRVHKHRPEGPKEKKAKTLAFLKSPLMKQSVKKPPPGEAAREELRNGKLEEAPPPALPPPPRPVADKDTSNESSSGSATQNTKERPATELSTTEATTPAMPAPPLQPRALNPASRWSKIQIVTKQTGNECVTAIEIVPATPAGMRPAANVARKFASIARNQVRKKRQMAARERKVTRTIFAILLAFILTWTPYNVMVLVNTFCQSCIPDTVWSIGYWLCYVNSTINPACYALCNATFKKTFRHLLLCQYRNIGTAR
Method in brief: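 Agonist-mode response was expressed as percent of the Carbachol EC100 and fitted with four-parameter nonlinear regression over an 11-point triplicate dose series. Intracellular Ca++ was tracked for 3 min by fluorescent dye in CHO-K1 cells stably expressing human CHRM4. Cells were preincubated 60 min with 20 μM ATP in buffer containing 2.5 mM probenecid.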

[2] = biological target: T2, human cloned CHRM3 receptor (M3_CHO cells) (Homo sapiens, UniProt P20309); experiment: CHRM3 Ca++ Flux Assay (agonist mode, FDSS 7000EX); type: cell-based; conditions: for M3 FDSS PA: Percent Activity measured to EC100 of Carbachol; for EC50: agonist mode, geometric mean if tested more than once, read-out: M3 FDSS EC50
T2 construct: expressed in transfected cells; host or cells: CHO-K1
T2 sequence (P20309 whole entry): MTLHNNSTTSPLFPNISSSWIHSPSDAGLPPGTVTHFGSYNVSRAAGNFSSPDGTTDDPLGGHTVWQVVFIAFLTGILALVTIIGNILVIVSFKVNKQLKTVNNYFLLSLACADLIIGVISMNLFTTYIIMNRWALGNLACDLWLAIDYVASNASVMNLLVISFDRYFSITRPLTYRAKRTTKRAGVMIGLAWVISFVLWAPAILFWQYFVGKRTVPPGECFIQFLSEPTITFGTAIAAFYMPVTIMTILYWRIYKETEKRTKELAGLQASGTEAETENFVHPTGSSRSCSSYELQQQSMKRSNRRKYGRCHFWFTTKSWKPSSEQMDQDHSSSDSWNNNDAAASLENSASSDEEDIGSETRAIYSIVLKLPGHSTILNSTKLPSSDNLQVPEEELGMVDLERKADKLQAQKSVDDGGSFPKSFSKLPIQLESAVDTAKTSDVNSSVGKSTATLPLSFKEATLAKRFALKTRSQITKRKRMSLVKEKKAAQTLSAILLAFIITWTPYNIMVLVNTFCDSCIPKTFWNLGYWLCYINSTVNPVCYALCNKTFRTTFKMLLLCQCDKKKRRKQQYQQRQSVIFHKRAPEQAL
Method in brief: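 CHO-K1 cells stably expressing human M3 or M5 receptor were dye-loaded for at least 1 h in HBSS with 20 mM HEPES and 2.5 mM probenecid, then given 11-point compound doses in triplicate.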

| SMILES | M4 FDSS PA [1] | EC50 [1] | M3 FDSS PA [2] | EC50 [2] |
| --- | --- | --- | --- | --- |
| Fc1ccc(C2CCOCC2)c(C2CCN([C@@H]3CCC4(C3)CN(c3cncnc3)C4)CC2)c1 (single isomer, unassigned) [Example 10D, (R)-6-(4-(5-fluoro-2-(tetrahydro-2H-pyran-4-yl)phenyl)piperidin-1-yl)-2-(pyrimidin-5-yl)-2-azaspiro[3.4]octane or (S)-6-(4-(5-fluoro-2-(tetrahydro-2H-pyran-4-yl)phenyl)piperidin-1-yl)-2-(pyrimidin-5-yl)-2-azaspiro[3.4]octane] | 50% | 0.025 µM | 0% | > 25 µM |
| Fc1ccc(OC2CC3(COC3)C2)c(C2CCN([C@@H]3CCC4(C3)CN(c3cncnc3)C4)CC2)c1 (single isomer, unassigned) [Example 10E, (R)-6-(4-(2-((2-oxaspiro[3.3]heptan-6-yl)oxy)-5-fluorophenyl)piperidin-1-yl)-2-(pyrimidin-5-yl)-2-azaspiro[3.4]octane or (S)-6-(4-(2-((2-oxaspiro[3.3]heptan-6-yl)oxy)-5-fluorophenyl)piperidin-1-yl)-2-(pyrimidin-5-yl)-2-azaspiro[3.4]octane] | 59% | 0.027 µM | 0% | > 25 µM |
| Fc1ccc(OC2CC3(COC3)C2)c(C2CCN([C@@H]3CCC4(C3)CN(c3cncnc3)C4)CC2)c1 (single isomer, unassigned) [Example 10F, (R)-6-(4-(2-((2-oxaspiro[3.3]heptan-6-yl)oxy)-5-fluorophenyl)piperidin-1-yl)-2-(pyrimidin-5-yl)-2-azaspiro[3.4]octane or (S)-6-(4-(2-((2-oxaspiro[3.3]heptan-6-yl)oxy)-5-fluorophenyl)piperidin-1-yl)-2-(pyrimidin-5-yl)-2-azaspiro[3.4]octane] | 71% | 0.0047 µM | 0% | > 25 µM |
| Fc1ccc(OC2CCOCC2)c(C2CCN([C@@H]3CCC4(C3)CN(c3cncnc3)C4)CC2)c1 (single isomer, unassigned) [Example 10G, (R)-6-(4-(5-fluoro-2-((tetrahydro-2H-pyran-4-yl)oxy)phenyl)piperidin-1-yl)-2-(pyrimidin-5-yl)-2-azaspiro[3.4]octane or (S)-6-(4-(5-fluoro-2-((tetrahydro-2H-pyran-4-yl)oxy)phenyl)piperidin-1-yl)-2-(pyrimidin-5-yl)-2-azaspiro[3.4]octane] | 56% | 0.005 µM | 0% | > 25 µM |
| Fc1ccc(OC2CCOCC2)c(C2CCN([C@@H]3CCC4(C3)CN(c3cncnc3)C4)CC2)c1 (single isomer, unassigned) [Example 10H, (R)-6-(4-(5-fluoro-2-((tetrahydro-2H-pyran-4-yl)oxy)phenyl)piperidin-1-yl)-2-(pyrimidin-5-yl)-2-azaspiro[3.4]octane or (S)-6-(4-(5-fluoro-2-((tetrahydro-2H-pyran-4-yl)oxy)phenyl)piperidin-1-yl)-2-(pyrimidin-5-yl)-2-azaspiro[3.4]octane] | 51% | 0.019 µM | 0% | > 25 µM |
| COc1ccccc1C1CCN([C@H]2CCC3(C2)CN(c2ncco2)C3)CC1 (single isomer, unassigned) [Example 10I, S)-2-(6-(4-(2-methoxyphenyl)piperidin-1-yl)-2-azaspiro[3.4]octan-2-yl)oxazole or (R)-2-(6-(4-(2-methoxyphenyl)piperidin-1-yl)-2-azaspiro[3.4]octan-2-yl)oxazole] | 17% | 1.07 µM | 0% | > 25 µM |
| COc1ccccc1C1CCN([C@H]2CCC3(C2)CN(c2ncco2)C3)CC1 (single isomer, unassigned) [Example 10J, (S)-2-(6-(4-(2-methoxyphenyl)piperidin-1-yl)-2-azaspiro[3.4]octan-2-yl)oxazole or (R)-2-(6-(4-(2-methoxyphenyl)piperidin-1-yl)-2-azaspiro[3.4]octan-2-yl)oxazole] | 67% | 0.001 µM | 0% | > 25 µM |
| FC(F)(F)Oc1ccccc1C1CCN([C@@H]2CCC3(C2)CN(c2ncco2)C3)CC1 (single isomer, unassigned) [Example 10K, (R)-2-(6-(4-(2-(trifluoromethoxy)phenyl)piperidin-1-yl)-2-azaspiro[3.4]octan-2-yl)oxazole or (S)-2-(6-(4-(2-(trifluoromethoxy)phenyl)piperidin-1-yl)-2-azaspiro[3.4]octan-2-yl)oxazole] | 65% | 0.007 µM | 0% | > 25 µM |
| FC(F)(F)Oc1ccccc1C1CCN([C@@H]2CCC3(C2)CN(c2ncco2)C3)CC1 (single isomer, unassigned) [Example 10L, (R)-2-(6-(4-(2-(trifluoromethoxy)phenyl)piperidin-1-yl)-2-azaspiro[3.4]octan-2-yl)oxazole or (S)-2-(6-(4-(2-(trifluoromethoxy)phenyl)piperidin-1-yl)-2-azaspiro[3.4]octan-2-yl)oxazole] | 57% | 0.098 µM | 2% | 12.4 µM |
| FC(F)(F)Oc1ccccc1C1CCN([C@@H]2CCC3(C2)CN(c2nncs2)C3)CC1 (single isomer, unassigned) [Example 10M, (R)-2-(6-(4-(2-(trifluoromethoxy)phenyl)piperidin-1-yl)-2-azaspiro[3.4]octan-2-yl)-1,3,4-thiadiazole or (S)-2-(6-(4-(2-(trifluoromethoxy)phenyl)piperidin-1-yl)-2-azaspiro[3.4]octan-2-yl)-1,3,4-thiadiazole] | 67% | 0.011 µM | 0% | > 25 µM |
| FC(F)(F)Oc1ccccc1C1CCN([C@@H]2CCC3(C2)CN(c2nncs2)C3)CC1 (single isomer, unassigned) [Example 10N, (R)-2-(6-(4-(2-(trifluoromethoxy)phenyl)piperidin-1-yl)-2-azaspiro[3.4]octan-2-yl)-1,3,4-thiadiazole or (S)-2-(6-(4-(2-(trifluoromethoxy)phenyl)piperidin-1-yl)-2-azaspiro[3.4]octan-2-yl)-1,3,4-thiadiazole] | 1% | > 25 µM | 0% | > 25 µM |
| FC(F)Oc1ccccc1C1CCN([C@@H]2CCC3(C2)CN(c2nncs2)C3)CC1 (single isomer, unassigned) [Example 10O, (R)-2-(6-(4-(2-(difluoromethoxy)phenyl)piperidin-1-yl)-2-azaspiro[3.4]octan-2-yl)-1,3,4-thiadiazole or (S)-2-(6-(4-(2-(difluoromethoxy)phenyl)piperidin-1-yl)-2-azaspiro[3.4]octan-2-yl)-1,3,4-thiadiazole] | 67% | 0.001 µM | 0% | > 25 µM |
| COc1ccccc1C1CCN([C@@H]2CCC3(C2)CN(c2ncns2)C3)CC1 (single isomer, unassigned) [Example 10Q, (R)-5-(6-(4-(2-methoxyphenyl)piperidin-1-yl)-2-azaspiro[3.4]octan-2-yl)-1,2,4-thiadiazole or (S)-5-(6-(4-(2-methoxyphenyl)piperidin-1-yl)-2-azaspiro[3.4]octan-2-yl)-1,2,4-thiadiazole] | 71% | 0.008 µM | 0% | > 25 µM |
| COc1ccccc1C1CCN([C@@H]2CCC3(C2)CN(c2ncns2)C3)CC1 (single isomer, unassigned) [Example 10R, (R)-5-(6-(4-(2-methoxyphenyl)piperidin-1-yl)-2-azaspiro[3.4]octan-2-yl)-1,2,4-thiadiazole or (S)-5-(6-(4-(2-methoxyphenyl)piperidin-1-yl)-2-azaspiro[3.4]octan-2-yl)-1,2,4-thiadiazole] | 36% | 0.122 µM | 0% | > 25 µM |
| O=C(N1CC2(CC[C@@H](N3CCC(c4cc(F)ccc4OC4CC5(COC5)C4)CC3)C2)C1)C1(F)CC1 (single isomer, unassigned) [Example 11A, (R)-(6-(4-(2-((2-oxaspiro[3.3]heptan-6-yl)oxy)-5-fluorophenyl)piperidin-1-yl)-2-azaspiro[3.4]octan-2-yl)(1-fluorocyclopropyl)methanone or (S)-(6-(4-(2-((2-oxaspiro[3.3]heptan-6-yl)oxy)-5-fluorophenyl)piperidin-1-yl)-2-azaspiro[3.4]octan-2-yl)(1-fluorocyclopropyl)methanone] | 45% | 0.038 µM | 0% | > 25 µM |
